Where “and” joins values, the source holds several entries; their conditions need not be identical. Identical values can stand only once.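 48-hour exposure; five concentrations; linearly interpolated endpoints. GI50 marks 50% less growth. At the TGI there is no net growth.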

In PubChem BioAssay (NCI) one finds TGI and GI50 data, which are given here for 11 compounds.

Test systems include ACHN renal; DMS 114 small cell lung; HCT-116 colon; HCT-15 colon; LXFL 529 NSCLC; MALME-3M melanoma; SF-539 CNS; SK-OV-3 ovarian; SNB-19 CNS; SNB-78 CNS; DU-145 prostate; XF 498 CNS.
Common to all, as to experiment: growth of human tumour cells (NCI), 48 h

In the case of `Cc1ccc(C)c(N2C(=O)C(=O)C(c3nc4ccccc4s3)C(=O)C2=O)c1`, the TGI in the test on ACHN renal, in the test on DMS 114 small cell lung, in the test on HCT-116 colon, in the test with HCT-15 colon, in the test with LXFL 529 NSCLC and with MALME-3M melanoma was above 100 µM in each case. The TGI in the test with SF-539 CNS, in the test on SK-OV-3 ovarian, in the test on SNB-19 CNS and in the test on SNB-78 CNS was above 100 µM in each case.

For `COC(=O)CCC(=O)C(CC(=O)OC)C(=O)CCC(=O)NCCc1ccccc1` (stereo not drawn), the TGI with ACHN renal, in the test with HCT-116 colon, in the test with HCT-15 colon, in the test with LXFL 529 NSCLC, in the test with MALME-3M melanoma and in the test with SF-539 CNS was above 100 µM throughout. The TGI with SK-OV-3 ovarian, in the test on SNB-19 CNS and in the test on SNB-78 CNS was above 100 µM each time.

As for `CC(=O)OC1C(COC(N)=O)OC(n2c(-c3ccc(C)cc3)cc(-c3ccccc3)c(C#N)c2=O)C(OC(C)=O)C1OC(C)=O` (stereo not drawn), the TGI in the test with ACHN renal, in the test with HCT-116 colon, in the test with HCT-15 colon, in the test with LXFL 529 NSCLC, in the test with MALME-3M melanoma and in the test with SF-539 CNS was above 100 µM in each case. The TGI in the test with SK-OV-3 ovarian, in the test on SNB-19 CNS and with SNB-78 CNS was above 100 µM each time.

As for `CSc1nc(SC)c2c(C)cn(Cc3ccccc3)c2n1`, the TGI with ACHN renal, in the test with DU-145 prostate, in the test with HCT-116 colon, in the test with HCT-15 colon, with MALME-3M melanoma and in the test with SF-539 CNS was above 100 µM in each case. Further, the TGI in the test with SK-OV-3 ovarian and in the test on SNB-19 CNS was above 100 µM in each case.

With `O=C1NC(=N[C@@H]2C[C@H]2c2ccccc2)S/C1=C\c1ccc2ncccc2c1`, the GI50 is 1.29 µM in the test with ACHN renal; 1.94 µM with DU-145 prostate; 839 nM in the test on HCT-116 colon; 0.74 µM in the test with HCT-15 colon; 2.62 µM with MALME-3M melanoma; 1.04 µM with SF-539 CNS. The GI50 was 1.06 µM with SK-OV-3 ovarian and 2.98 µM with SNB-19 CNS. In addition, the TGI with ACHN renal is 8.69 µM; in the test on DU-145 prostate it was 24.9 µM; with HCT-116 colon it was 5.72 µM; in the test on HCT-15 colon it was above 25 µM; in the test on MALME-3M melanoma, 12.1 µM; in the test on SF-539 CNS, 5.07 µM. The TGI in the test on SK-OV-3 ovarian was determined as 4.06 µM; in the test with SNB-19 CNS, 24.8 µM.

With `CCN1C2=C(SC(=S)C1=C1SC(C(=O)c3ccccc3)=C(C(=O)c3ccccc3)S1)SC(=Nc1ccccc1)C2=O`, the GI50 is 37.3 µM with ACHN renal; 24.6 µM in the test with DU-145 prostate; 2660 nM in the test on HCT-116 colon; above 100 µM with HCT-15 colon; 21.2 µM with MALME-3M melanoma; 14.4 µM with SF-539 CNS. Moreover, the GI50 is above 96.7 µM in the test on SK-OV-3 ovarian and 53.4 µM in the test on SNB-19 CNS. The TGI is above 100 µM in the test on ACHN renal; above 100 µM in the test with DU-145 prostate; 38.7 µM in the test on HCT-116 colon; above 100 µM in the test on HCT-15 colon; above 100 µM in the test with MALME-3M melanoma; above 100 µM in the test with SF-539 CNS. The TGI in the test on SK-OV-3 ovarian and in the test on SNB-19 CNS was above 100 µM each time.

In the case of `Nc1ncnc2occ(-c3ccc(NC(=O)Nc4cc(C(F)(F)F)ccc4F)cc3)c12`, the GI50 is 4.17 µM and 2.9 µM in the test on ACHN renal; 7.01 µM and 2.68 µM in the test on DU-145 prostate; 5200 nM and 1510 nM in the test with HCT-116 colon; 6.31 µM and 3.97 µM with HCT-15 colon; 7.15 µM and 4.35 µM in the test on MALME-3M melanoma; 2.78 µM and 1.09 µM in the test on SF-539 CNS. For the same compound, the GI50 in the test on SK-OV-3 ovarian is 8.24 µM and 4.19 µM; with SNB-19 CNS it was 8.29 µM and 5.71 µM. Besides, the TGI in the test with ACHN renal was 18.8 µM and 16.4 µM; with DU-145 prostate, 21.1 µM and 9.28 µM; with HCT-116 colon, 16.8 µM and 9.61 µM; in the test with HCT-15 colon, 21.7 µM and 13.5 µM; with MALME-3M melanoma it was 17.6 µM and 12 µM; in the test with SF-539 CNS it was 8.79 µM and 6.45 µM. Further, the TGI in the test with SK-OV-3 ovarian is 25 µM and 12.6 µM; in the test on SNB-19 CNS it was 23.3 µM and 19.5 µM.

As to `CCOC(=O)c1c2c(n(Cc3ccccc3)c1C)-c1nc[nH]c1C(=O)C2=O`, the GI50 is 14.8 µM with ACHN renal; 9.83 µM with DU-145 prostate; 16000 nM in the test with HCT-116 colon; 14.8 µM in the test on HCT-15 colon; 11.3 µM in the test with MALME-3M melanoma; 17.7 µM in the test on SF-539 CNS. The results for the GI50 with SK-OV-3 ovarian and in the test with SNB-19 CNS were 19.5 µM and 17 µM, respectively. Also, the TGI came out at 27.9 µM with ACHN renal; 21.5 µM in the test with DU-145 prostate; 30.4 µM in the test with HCT-116 colon; 29.1 µM with HCT-15 colon; 23.9 µM in the test on MALME-3M melanoma; 31.9 µM in the test on SF-539 CNS. Besides, the TGI in the test on SK-OV-3 ovarian was found to be 33.6 µM; in the test with SNB-19 CNS it was 30.7 µM.

Regarding `CN(CC(=O)O)S(=O)(=O)c1ccc(Cl)cc1`, the TGI with ACHN renal, with HCT-15 colon, in the test with LXFL 529 NSCLC, with MALME-3M melanoma, with SF-539 CNS and with SK-OV-3 ovarian was above 100 µM in each case. Further, the TGI with SNB-19 CNS and in the test on XF 498 CNS was above 100 µM throughout.

Take `Oc1c(CCl)cc(Cl)cc1Cc1cc(Cl)cc(Cc2cc(Cl)cc(CCl)c2O)c1O`: the GI50 was 3.09 µM with ACHN renal; 4.28 µM with DU-145 prostate; 2920 nM in the test on HCT-116 colon; 2.88 µM in the test with HCT-15 colon; 3.32 µM in the test with MALME-3M melanoma; 4.16 µM in the test with SF-539 CNS. The GI50 was 3.25 µM in the test on SK-OV-3 ovarian and 3.02 µM in the test with SNB-19 CNS. Besides, the TGI with ACHN renal amounted to 12.8 µM; in the test with DU-145 prostate, 37.1 µM; in the test on HCT-116 colon, 10.4 µM; with HCT-15 colon, 12 µM; in the test on MALME-3M melanoma it was 14.7 µM; with SF-539 CNS, 18.2 µM. The TGI in the test on SK-OV-3 ovarian turned out to be 11.4 µM; in the test on SNB-19 CNS it was 15.9 µM.

On to `S=c1sc2sc(=S)sc2s1`, for which the TGI with ACHN renal is above 100 µM; in the test with HCT-116 colon it was above 100 µM; in the test on HCT-15 colon it was above 100 µM; in the test with LXFL 529 NSCLC it was 26.9 µM; with MALME-3M melanoma, above 100 µM; with SF-539 CNS it was 57.8 µM. Further, the results for the TGI in the test on SK-OV-3 ovarian, with SNB-19 CNS and in the test with SNB-78 CNS were 33.9 µM, above 100 µM and above 100 µM, respectively.
